Measured values as given in patent US20120045764A1, “METHOD OF EXPANDING HUMAN HEPATOCYTES IN VIVO” (priority 2009, published 2012).
Values joined by “and” are separate entries in the source; they are usually repeats but may differ in a detail not shown here. Equal entries are not always repeated. “Also recorded” adds a separate entry of the source.

Experiments:
[1] = test system: CYP3A4; assay: Conversion of testosterone to 6-beta-hydroxyltestosterone in cultured hepatocytes from humanized mice; conditions: cultured hepatocytes from repopulated FRG livers
Text: (§1) The basal expression and induction of human liver specific genes in chimeric mice was examined. […] Primers, obtained from Applied Biosystems, were specific for human CYP1A1 (Hs00153120_m1), CYP1A2 (Hs00167927_m1), CYP3A4 (Hs00430021_m1), CYP3A7 (Hs00426361_a1), CYP2B6 (Hs00167937_g1), CYP2D6 (Hs00164385_a1), Multidrug resistance associated protein MRP2 (Hs00166123_m1), Bile Salt export Pump BSEP, (Hs00184829_m1), CAR (Hs00231959_m1) Albumin (Hs00609411_m1), HNF4α (Hs00230853_m1), Cyclophillin (Hs99999904_m1) and mouse actin (Ma00607939_s1).
Cultures of isolated hepatocytes were established and exposed to prototypical inducers of the cytochrome P450 genes. […] In addition to the mRNA expression levels of human drug metabolism genes, the enzymatic activity of the human CYP1A and 3A family members were measured. Ethoxyresorufin-O-deethylase activity (EROD) is known to be mediated by CYP1A1 and 1A2 in human liver.

[2] = test system: CYP3A4; assay: Induction of CYP3A4 mRNA in hepatocytes from humanized mice (real-time PCR); conditions: relative to non-induced cultures; FIG. 7B
Text: as §1

[3] = test system: FRG mice; assay: Liver repopulation of FRG mice treated with anakinra (blood human albumin by ELISA); format: in vivo, mouse; conditions: for blood level of human albumin, Elisa #1: Experiment #3, serial transplantation
Description: Small amounts of blood were collected once a week from the left saphenous vein with a heparinized blood capillary. After 1,000 or 10,000× dilution with Tris-buffered saline, human albumin concentration was measured with the Human Albumin ELISA Quantitation Kit (Bethyl) according to the manufacturer's protocol.
One million human hepatocytes from the same batch were injected intrasplenically into six FRG mice. In three mice, anakinra (2 mg) was administered intraperitoneally during surgery and then once daily for six additional doses (total dose=14 mg over 7 days). One month after transplantation, blood human albumin was measured by ELISA. […] All three anakinra-treated mice had much higher albumin levels (130, 165 and 200 μg/ml).
Additional experiments validated these initial observations. […] Cohorts of genetically identical mice were injected with the same batch of human cells and were either untreated (Con) or treated with anakinra (Ana). Different dosing regimens of anakinra were used and different lengths of administration were tested. High dose anakinra (Hi) was 2 mg/mouse/day and low dose (lo) was 0.4 mg/mouse/day. The drug was injected daily for either 3 days (×3) or 7 days (×7). Blood levels of human albumin were measured by ELISA to ascertain the degree of human repopulation.

[4] = test system: CYP1A1 and 1A2; assay: Ethoxyresorufin-O-deethylase (EROD) activity in cultured hepatocytes from humanized mice; format: cell-based, human; conditions: humanized mouse liver cells in culture
Description: (§2) Cultures of isolated hepatocytes were established and exposed to prototypical inducers of the cytochrome P450 genes. […]. In addition to the mRNA expression levels of human drug metabolism genes, the enzymatic activity of the human CYP1A and 3A family members were measured. Ethoxyresorufin-O-deethylase activity (EROD) is known to be mediated by CYP1A1 and 1A2 in human liver. […] Thus, hepatocytes from repopulated FRG livers were indistinguishable from normal human adult hepatocytes in these standard drug metabolism assays.

[5] = test system: human drug metabolism genes; assay: Induction of mRNAs of drug metabolism genes in cultured hepatocytes from humanized mice (real-time PCR); format: cell-based; conditions: cultured hepatocytes from chimeric mice, mRNA
Description: as §2

[6] = test system: FRG mice; assay: Maintenance of FRG mice on NTBC in drinking water and NTBC withdrawal; format: in vivo, mouse
Description: To generate an immunodeficient Fah^−/− mouse strain completely lacking T cells, B cells and NK cells, but without a DNA repair defect, Fah^−/−/Rag2^−/−/Il2rg^−/− (FRG) mice were generated. Male Fah^−/−129S4 mice (Grompe et al. Genes Dev. 7:2298-2307, 1993) were crossed with female Rag2^−/−/Il2rg^−/− mice (Taconic). All animals were maintained with drinking water containing 2-(2-nitro-4-trifluoro-methyl-benzoyl)-1,3 cyclohexanedione (NTBC) at a concentration of 1.6 mg/L (Grompe et al. Nat. Genet. 10:453-460, 1995). To confirm the genotypes of each animal, PCR-based genotyping was carried out on 200 ng genomic DNA isolated from toe tissue (Grompe et al. Genes Dev. 7:2298-2307, 1993; Traggiai et al. Science 304:104-107, 2004).

Compound: CCC1(c2ccccc2)C(=O)NC(=O)NC1=O [PB, phenobarbital]
- conversion of testosterone to 6-beta-hydroxyltestosterone after prior exposure to inducer [1]: specifically induced
- induction of CYP3A4 mRNA [2]: even more striking than at the enzyme level

Compound: anakinra: recombinant, non-glycosylated version of human IL-1RA (IL-1 receptor antagonist), 153 amino acids, SEQ ID NO: 21
- blood level of human albumin, Elisa #2 ([3]; Experiment #1, primary transplantation, high dose (2 mg/mouse/day) x7): 5.6 mg and 4.8 mg
- blood level of human albumin, Elisa #1 ([3]; Hi (2 mg/mouse/day) x3): 52 μg-Hi x3 and 60 μg-Hi x3
- blood level of human albumin, Elisa #1 ([3]; Hi (2 mg/mouse/day) x7): 38 μg-Hi x7 and 56 μg-Hi x7
- blood human albumin ([3]; FRG mice, one million human hepatocytes intrasplenically, anakinra 2 mg i.p. during surgery then once daily for six doses (total 14 mg over 7 days), one month after transplantation): 130 µg/mL and 165 µg/mL and 200 µg/mL
- hepatocyte repopulation (in words) ([3]; anakinra-treated versus untreated FRG mice): remarkably enhanced; also recorded: consistently had much higher levels of repopulation
- enhanced repopulation versus untreated mice ([3]; on average, three independent tests of Table 6): approximately 100 fold
- percentage of highly humanized FRG mice after transplantation of human hepatocytes ([3]; with anakinra treatment versus without): significantly higher

Compound: O=c1cc(-c2ccccc2)oc2ccc3ccccc3c12 [BNF, beta-naphthoflavone]
- EROD activity after prior exposure to inducer [4]: specifically and robustly induced
- pattern of genes induced [5]: as expected from normal human cells

Compound: O=C1CCCC(=O)C1C(=O)c1ccc(C(F)(F)F)cc1[N+](=O)[O-] [NTBC, 2-(2-nitro-4-trifluoro-methyl-benzoyl)-1,3 cyclohexanedione]
- death after NTBC withdrawal ([6]; FRG mice, gradual hepatocellular injury after withdrawal): 4-8 weeks
- growth and fertility of FRG mice ([6]; NTBC continuously in drinking water, 1.6 mg/L): grew well and were fully fertile
